Results: ChEMBL document CHEMBL4818998, “Melatonin derivatives combat with inflammation-related cancer by targeting the Main Culprit STAT3” (Eur J Med Chem, 2021)

How the values were obtained:
MCF7 = assay: Antiproliferative activity against human MCF7 cells assessed as inhibition of cell proliferation measured after 72 hrs by MTT assay; type: functional, cell-based; conditions: MCF7, 72 h
HGC-27 = assay: Antiproliferative activity against human HGC-27 cells assessed as inhibition of cell proliferation measured after 72 hrs by MTT assay; type: functional, cell-based; conditions: HGC-27, 72 h
SGC-7901 = assay: Antiproliferative activity against human SGC-7901 cells assessed as inhibition of cell proliferation measured after 72 hrs by MTT assay; type: functional, cell-based; conditions: SGC-7901, 72 h
HCT-116 [1] = assay: Antiproliferative activity against human HCT-116 cells assessed as inhibition of cell proliferation measured after 72 hrs by MTT assay; type: functional, cell-based; conditions: HCT-116, 72 h
A549 = assay: Antiproliferative activity against human A549 cells assessed as inhibition of cell proliferation measured after 72 hrs by MTT assay; type: functional, cell-based; conditions: A549, 72 h
MGC-803 = assay: Antiproliferative activity against human MGC-803 cells assessed as inhibition of cell proliferation measured after 72 hrs by MTT assay; type: functional, cell-based; conditions: MGC-803, 72 h
AGS = assay: Antiproliferative activity against human AGS cells assessed as inhibition of cell proliferation measured after 72 hrs by MTT assay; type: functional, cell-based
HepG2 = assay: Antiproliferative activity against human HepG2 cells assessed as inhibition of cell proliferation measured after 72 hrs by MTT assay; type: functional, cell-based; conditions: HepG2, 72 h
HCT-116 [2] = assay: Induction of apoptosis in human HCT-116 cells assessed as necrotic cells at 20 uM measured after 48 hrs by Annexin V-FITC/PI staining based flow cytometry (reference value: 1.5%); type: functional
HCT-116 [3] = assay: Induction of apoptosis in human HCT-116 cells assessed as late apoptotic cells at 20 uM measured after 48 hrs by Annexin V-FITC/PI staining based flow cytometry (reference value: 1.42%); type: functional
HCT-116 [4] = assay: Induction of apoptosis in human HCT-116 cells assessed as viable cells at 20 uM measured after 48 hrs by Annexin V-FITC/PI staining based flow cytometry (reference value: 94.9%); type: functional; conditions: read-out: Activity
HCT-116 [5] = assay: Induction of apoptosis in human HCT-116 cells assessed as early apoptotic cells at 20 uM measured after 48 hrs by Annexin V-FITC/PI staining based flow cytometry (reference value: 2.14%); type: functional

| Compound | IC50 (MCF7) | IC50 (HGC-27) | IC50 (SGC-7901) | IC50 (HCT-116 [1]) | IC50 (A549) | IC50 (MGC-803) | IC50 (AGS) | IC50 (HepG2) | Activity (HCT-116 [2]) | Activity (HCT-116 [3]) | viability at 20 µM (HCT-116 [4]) | Activity (HCT-116 [5]) |
| --- | --- | --- | --- | --- | --- | --- | --- | --- | --- | --- | --- | --- |
| O=C(NCCc1c[nH]c2ccccc12)c1ccccc1NC1CCCC1 | > 30 µM | 19.3 µM | > 30 µM | > 30 µM | > 30 µM | > 30 µM | > 30 µM | 28.8 µM | – | – | – | – |
| Cc1ccc(S(=O)(=O)Nc2ccccc2C(=O)NCCc2c[nH]c3ccccc23)cc1 | > 30 µM | > 30 µM | > 30 µM | > 30 µM | > 30 µM | > 30 µM | > 30 µM | > 30 µM | – | – | – | – |
| Cc1cccc(Nc2ccccc2C(=O)NCCc2c[nH]c3ccccc23)c1C | > 30 µM | > 30 µM | > 30 µM | 14.4 µM | > 30 µM | > 30 µM | 16.6 µM | 21.7 µM | – | – | – | – |
| COc1ccc2[nH]cc(CCNC(=O)c3ccccc3Nc3ccccc3)c2c1 | 29 µM | > 30 µM | > 30 µM | 24.7 µM | > 30 µM | 12.8 µM | > 30 µM | > 30 µM | – | – | – | – |
| CNc1ccccc1C(=O)NCCc1c[nH]c2ccccc12 | > 30 µM | > 30 µM | > 30 µM | > 30 µM | > 30 µM | > 30 µM | > 30 µM | > 30 µM | – | – | – | – |
| Cc1cccc(Nc2ccccc2C(=O)NCCc2c[nH]c3ccc(O)cc23)c1C | 25.3 µM | 27 µM | > 30 µM | 22.2 µM | > 30 µM | 16.5 µM | 8.97 µM | 17 µM | – | – | – | – |
| CN(C)c1ccccc1C(=O)NCCc1c[nH]c2ccccc12 | > 30 µM | > 30 µM | > 30 µM | 16.6 µM | > 30 µM | > 30 µM | 22.6 µM | > 30 µM | – | – | – | – |
| CN(c1ccccc1)c1ccccc1C(=O)NCCc1c[nH]c2ccccc12 | 19.6 µM | > 30 µM | > 30 µM | 17.2 µM | > 30 µM | 11.1 µM | 14.7 µM | 21.3 µM | – | – | – | – |
| COc1ccc2[nH]cc(CCNC(=O)c3ccccc3Nc3cccc(Cl)c3C)c2c1 | 25.3 µM | 19.9 µM | 27.9 µM | 20.4 µM | 17.8 µM | 9.8 µM | 16 µM | 21.9 µM | – | – | – | – |
| O=C(NCCc1c[nH]c2ccccc12)c1ccccc1NC1CC1 | > 30 µM | 28.3 µM | > 30 µM | > 30 µM | > 30 µM | > 30 µM | > 30 µM | 28.4 µM | – | – | – | – |
| O=C(NCCc1c[nH]c2ccccc12)c1ccccc1NC1CCCCC1 | > 30 µM | 26.7 µM | > 30 µM | > 30 µM | > 30 µM | > 30 µM | > 30 µM | 28.6 µM | – | – | – | – |
| COc1ccc2[nH]cc(CCNC(C)=O)c2c1 [MELATONIN] | > 30 µM | > 30 µM | > 30 µM | > 30 µM | > 30 µM | > 30 µM | > 30 µM | > 30 µM | – | – | – | – |
| O=C(NCCc1c[nH]c2ccccc12)c1ccccc1NCCCCO | > 30 µM | > 30 µM | > 30 µM | > 30 µM | > 30 µM | > 30 µM | > 30 µM | > 30 µM | – | – | – | – |
| O=c1[nH]cc(F)c(=O)[nH]1 [FLUOROURACIL] | 13.2 µM | > 30 µM | > 30 µM | 6.1 µM | > 30 µM | 29.2 µM | 11 µM | > 30 µM | 2.69% | 10.4% | 81.3% | 5.54% |
| O=C(NCCc1c[nH]c2ccccc12)c1ccccc1NCc1ccccc1 | > 30 µM | 19.9 µM | > 30 µM | > 30 µM | > 30 µM | > 30 µM | > 30 µM | > 30 µM | – | – | – | – |
| COc1ccc(CCNc2ccccc2C(=O)NCCc2c[nH]c3ccccc23)cc1OC | > 30 µM | > 30 µM | > 30 µM | > 30 µM | > 30 µM | > 30 µM | > 30 µM | > 30 µM | – | – | – | – |
